Assay results published in patent US12668599B2, “Heterobifunctional compounds and methods of treating disease” (Halda Therapeutics OpCo, Inc., priority 2023, dated 2026).
Where two headings read alike, the source gives them in different places.

Tests used:
[1] = tested on: T-Rex 293 cell line SC3 cells having increased expression of androgen receptor protein due to exposure to doxycycline; test: Cellular growth inhibition, T-Rex 293 SC3 cells with doxycycline-induced androgen receptor (CellTiter-Glo 2.0, 72 hours); assay type: cell-based; settings: for Ratio of GI50's: GI50 of the top compound in the pair divided by GI50 of the lower compound, T-Rex 293 SC3 cells with doxycycline-induced androgen receptor; for GI50: T-Rex 293 SC3 cells with 10 ng/ml doxycycline (increased androgen receptor expression), 72 hours, CellTiter-Glo 2.0
VCaP cells = test: Cellular growth inhibition assay for VCaP cells (CellTiter-Glo 2.0, 72 hours); assay type: cell-based, human; settings: for Ratio of GI50's: GI50 of the top compound in the pair divided by GI50 of the lower compound; for GI50: CellTiter-Glo 2.0
[2] = target: T1, androgen receptor and BRD4 protein (Homo sapiens, UniProt O60885+P10275); test: Tumor TR-FRET trimer assay on tumors of the PK/PD Castrate VCaP model; assay type: in vivo, CB17.SCID mice; settings: PK/PD Castrate VCaP Tumor Xenograft Model; Compound II-5 and Compound B at the same dose and dosing frequency, FIG. 20
T1 construct: Tumors obtained from the Castrate VCaP Model were lysed; from tissue; host or cells: VCaP tumour xenografts grown in castrated CB17.SCID mice
T1 sequence (P10275 whole entry, other chains not shown): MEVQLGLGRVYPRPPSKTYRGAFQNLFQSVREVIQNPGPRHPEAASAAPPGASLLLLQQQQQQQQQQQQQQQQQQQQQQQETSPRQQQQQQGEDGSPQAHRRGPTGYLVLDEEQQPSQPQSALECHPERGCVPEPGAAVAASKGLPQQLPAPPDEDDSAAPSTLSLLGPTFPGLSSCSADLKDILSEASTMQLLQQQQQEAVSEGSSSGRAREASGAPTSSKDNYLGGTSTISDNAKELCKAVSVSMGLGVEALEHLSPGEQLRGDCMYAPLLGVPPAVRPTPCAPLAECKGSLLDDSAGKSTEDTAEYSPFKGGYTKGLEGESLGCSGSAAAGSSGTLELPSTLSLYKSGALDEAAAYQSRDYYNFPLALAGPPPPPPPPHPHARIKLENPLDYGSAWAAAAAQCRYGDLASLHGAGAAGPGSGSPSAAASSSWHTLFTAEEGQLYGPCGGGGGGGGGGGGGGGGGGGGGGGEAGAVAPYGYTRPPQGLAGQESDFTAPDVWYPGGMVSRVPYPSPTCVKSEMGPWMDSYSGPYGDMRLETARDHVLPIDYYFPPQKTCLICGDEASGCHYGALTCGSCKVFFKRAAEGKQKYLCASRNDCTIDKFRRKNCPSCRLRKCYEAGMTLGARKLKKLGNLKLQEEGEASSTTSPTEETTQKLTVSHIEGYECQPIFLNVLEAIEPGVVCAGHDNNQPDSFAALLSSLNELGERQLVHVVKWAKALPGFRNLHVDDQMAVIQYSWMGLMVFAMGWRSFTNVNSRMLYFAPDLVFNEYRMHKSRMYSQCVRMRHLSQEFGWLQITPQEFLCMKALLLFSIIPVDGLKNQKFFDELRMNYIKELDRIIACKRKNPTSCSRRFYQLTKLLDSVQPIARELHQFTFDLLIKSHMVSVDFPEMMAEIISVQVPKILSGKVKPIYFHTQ
Description: 5M VCaP cells were subcutaneously implanted into CB17.SCID mice in 50% Matrigel (Corning). Mice were castrated under anesthesia once tumor volumes reached 100 mm^3. Tumors were then allowed to reach an average of approximately 150 mm^3 before randomization into efficacy arms. Tumors were measured twice weekly for Tumor Growth Inhibition (TGI) calculation. For PK/PD analysis, tumors were allowed to reach an average of 400 mm^3, before dosing the mice with test compound by oral gavage (n=5) for seven days. Mice were sacrificed 24 hours following the final dose, and tumors were harvested for downstream analysis. Plasma samples were collected from all dosed mice 2 hours following the final dose to determine test compound exposure by LC-MS/MS. […] the United States Food and Drug Administration for treatment of prostate cancer ([…]).
Tumors obtained from the Castrate VCaP Model were lysed in Cell Signaling Technology lysis buffer supplemented with protease/phosphatase inhibitors and nuclease. Each tumor was lysed in 10 μL of lysis buffer per mg of tumor and placed in a TissueLyser for 4 minutes at 20 Hz. Each sample was spun down at 16000×g for 10 minutes, the supernatant was removed, and a BCA assay was run to quantify the total protein concentration in each sample. In a white opaque 384 well plate each sample was diluted in supplemented CST lysis buffer to 48 and 24 μg of protein in a total volume of 16 μL. 4 μL of a 1:1 mixture of anti-androgen receptor and anti-BRD4 antibodies with donor and acceptor fluorophores were mixed into each well containing tumor samples. The plate was spun down at 300×g for one minute, placed on a plate shaker at 400 RPM for 10 minutes, spun down at 300×g for one minute, then sealed with a plate seal and stored overnight. Approximately 16 hours after adding antibodies, the plate was read on an Envision plate reader. The ratiometric value of each well was calculated by dividing the acceptor signal by the donor signal and multiplying by 10,000.

[3] = Stability to storage of crystal form under relative humidity; assay type: physicochemical; settings: 23-25° C., 23% RH to 53% RH, one week
[4] = Stability analysis of Crystal Form A and Crystal Form B in solvent suspensions (XRPD); assay type: physicochemical; settings: suspensions in EtOH, Acetone, Acetonitrile, THF/Heptane at 25° C. and 50° C. for 1 week
Description: The obtained suspensions were stirred at 25° C. and 50° C. for 1 week, respectively. Solid parts (wet cakes) were isolated by centrifugation filtration at […] temperature and investigated by XRPD.

[5] = tested on: T-Rex 293 cell line SC3 cells lacking increased expression of androgen receptor protein; test: Cellular growth inhibition, T-Rex 293 SC3 cells without doxycycline (CellTiter-Glo 2.0, 72 hours); assay type: cell-based; settings: T-Rex 293 SC3 cells not exposed to doxycycline (no increased androgen receptor expression)
T47D cells = test: Cellular growth inhibition assay for T47D cells (CellTiter-Glo 2.0, 72 hours); assay type: cell-based, human
Description: Exemplary compounds were tested for ability to inhibit the proliferation of T47D cells. T47D cells are a commercially available human breast cancer cell line.
T47D cells were purchased from American Type Cell Culture (ATCC Cat #HTB-133) and then seeded on poly-D-lysine coated, black clear-bottom 384-well plates at 3000/well in 25 μL Dulbecco's Modified Eagle Medium (DMEM) supplemented with 10% w/w Fetal bovine serum (FBS), 0.2 units/mL recombinant human insulin (Gibco Cat #12585014), and 1% w/w Pen-Strep. Pen-Strep is a commercially available mixture of penicillin G and streptomycin, which is used in mammalian cell culture media to prevent bacterial contamination. Dulbecco's Modified Eagle Medium (DMEM) supplemented with 10% w/w fetal bovine serum (FBS), 0.2 units/mL recombinant human insulin, and 1% w/w Pen-Strep is herein referred to as Treatment Medium. Following seeding of cells in the plates, the plates were spun at 300×g for 30 seconds, then equilibrated to room temperature for 30 minutes, and then deposited in a humidified tissue culture incubator maintained at 37° C. with 5% CO2.
At 24 hours after seeding of the cells, dilutions of test compound were prepared in DMSO and dissolved in Treatment Medium, to achieve a final DMSO concentration of 0.5% w/w, thereby providing the Test Compound Solution. A 25 μL aliquot of the Test Compound Solution was added to cells in the well plates. An equal volume of a solution containing DMSO and Treatment Medium was used as a negative control. Following treatment of cells with Test Compound Solution or said equal volume of a solution containing DMSO and Treatment Medium, the plates were spun at 300×g for 30 seconds, and then left in an incubator for 72 hours.
At the end of the treatment duration, cell viability was quantified with CellTiter-Glo 2.0 reagent (Promega Cat #G9243). For this purpose, plates were equilibrated to room temperature for 30 minutes, and then 25 μL of CellTiter-Glo 2.0 reagent was added to cells in the plate wells. Plates were then agitated on a shaker for two minutes at 500 rpm and subsequently incubated at room temperature for 10 minutes. Following incubation, the plates were spun at 3000×g for 30 seconds, then sealed with an optical adhesive cover, and luminescence readings were measured with an En Vision Plate Reader (Perkin Elmer).
Data was normalized using zero luminescence for baseline. A four-parameter non-linear regression curve fit was applied to dose-response data in GraphPad Prism data analysis software to determine the half-maximal growth inhibitory concentration (GI50) for each test compound.

Row | Structure (SMILES) | Ratio of GI50's [1] | Ratio of GI50's (VCaP cells) | relative stability of crystal forms [4] | GI50 [1] [nM] | GI50 ([5]; 72 h) [nM] | GI50 (VCaP cells; Homo sapiens, VCaP, 72 h) [nM] | GI50 (T47D cells; Homo sapiens, T47D, 72 h) [nM] | further results
1 | Cc1sc2c(c1C)C(c1ccc(OC3CC4(CCN(c5ncc(C(=O)N[C@H]6C(C)(C)[C@H](Oc7ccc(C#N)c(Cl)c7)C6(C)C)cn5)CC4)C3)cc1)=N[C@@H](Cc1ncco1)c1nnc(C)n1-2 [B, reference compound] | 5.3 | 1.3 | – | – | – | – | – | ternary complex formation between compound, androgen receptor, and BRD4 protein in tumors [2]: observed
2 | COc1cc(O[C@H]2C(C)(C)[C@H](NC(=O)c3cnc(N4CCC5(CC4)CC(Oc4ccc(C6=N[C@@H](Cc7ncco7)c7nnc(C)n7-c7sc(C)c(C)c76)cc4)C5)nc3)C2(C)C)ccc1C#N [Compound II-5 in Crystal Form A, N-[(1r,3r)-3-(4-cyano-3-methoxy-phenoxy)-2,2,4,4-tetramethyl-cyclobutyl]-2-[2-[4-[(9S)-4,5,13-trimethyl-9-(oxazol-2-ylmethyl)-3-thia-1,8,11,12-tetrazatricyclo[8.3.0.0^2,6]trideca-2 (6),4,7,10,12-pentaen-7-yl]phenoxy]-7-azaspiro[3.5]nonan-7-yl]pyrimidine-5-carboxamide Crystal Form A] | – | – | superior stability | – | – | – | – | physical stability of crystalline form on storage [3]: no change in crystalline form was observed
3 | COc1cc(O[C@H]2C(C)(C)[C@H](NC(=O)c3cnc(N4CCC5(CC4)CC(Oc4ccc(C6=N[C@@H](Cc7ncco7)c7nnc(C)n7-c7sc(C)c(C)c76)cc4)C5)nc3)C2(C)C)ccc1C#N [Compound II-5 in Crystal Form B, N-[(1r,3r)-3-(4-cyano-3-methoxy-phenoxy)-2,2,4,4-tetramethyl-cyclobutyl]-2-[2-[4-[(9S)-4,5,13-trimethyl-9-(oxazol-2-ylmethyl)-3-thia-1,8,11,12-tetrazatricyclo[8.3.0.0^2,6]trideca-2 (6),4,7,10,12-pentaen-7-yl]phenoxy]-7-azaspiro[3.5]nonan-7-yl]pyrimidine-5-carboxamide Crystal Form B] | – | – | converted to Compound II-5 in Crystal Form A | – | – | – | – | –
4 | COc1cc(O[C@H]2C(C)(C)[C@H](NC(=O)c3cnc(N4CCC5(CC4)CC(Cc4ccc(C6=N[C@@H](Cc7ncco7)c7nnc(C)n7-c7sc(C)c(C)c76)cc4)C5)nc3)C2(C)C)ccc1C#N [II-10, N-[3-(4-cyano-3-methoxy-phenoxy)-2,2,4,4-tetramethyl-cyclobutyl]-2-[2-[[4-[(9S)-4,5,13-trimethyl-9-(oxazol-2-ylmethyl)-3-thia-1,8,11,12-tetrazatricyclo[8.3.0.0^2,6]trideca-2 (6),4,7,10,12-pentaen-7-yl]phenyl]methyl]-7-azaspiro[3.5]nonan-7-yl]pyrimidine-5-carboxamide] | 1 | 1 | – | < 500 | 500 to 1500 | < 500 | < 500 | –
5 | COc1cc(O[C@H]2C(C)(C)[C@H](NC(=O)c3cnc(N4CCC5(CCC(c6ccc(C7=N[C@@H](Cc8ncco8)c8nnc(C)n8-c8sc(C)c(C)c87)cc6)CC5)C4)nc3)C2(C)C)ccc1C#N [II-11, N-[(1r,3r)-3-(4-cyano-3-methoxy-phenoxy)-2,2,4,4-tetramethyl-cyclobutyl]-2-[8-[4-[(9S)-4,5,13-trimethyl-9-(oxazol-2-ylmethyl)-3-thia-1,8,11,12-tetrazatricyclo[8.3.0.0^2,6]trideca-2 (6),4,7,10,12-pentaen-7-yl]phenyl]-2-azaspiro[4.5]decan-2-yl]pyrimidine-5-carboxamide] | – | – | – | < 500 | < 500 | < 500 | < 500 | –
6 | COc1cc(O[C@H]2C(C)(C)[C@H](NC(=O)c3cnc(N4CCC5(CCC(c6ccc(C7=N[C@@H](Cc8ncco8)c8nnc(C)n8-c8sc(C)c(C)c87)cc6)CC5)C4)nc3)C2(C)C)ccc1C#N [II-12] | 1 | 1 | – | < 500 | – | – | – | GI50 [5]: < 500 nM; GI50 (VCaP cells; 72 hours): < 500 nM; GI50 (T47D cells): < 500 nM
